The text below walks through data of US10450347B2, “Immunomodulators” (BRISTOL-MYERS SQUIBB COMPANY, priority 2015, dated 2019).

For the experiment, the target named is T1, PD-1-Ig/PD-L1-His (Homo sapiens, UniProt Q9NZQ7).
T1 construct: [hPD-L1(19-239)-tobacco vein mottling virus protease cleavage site (TVMV)-His]; made in house; host or cells: HEK293T cells
Kind of experiment: PD-1/PD-L1 Homogenous Time-Resolved Fluorescence (HTRF) binding assay. The conditions noted are these: inhibition of PD-1-Ig binding to PD-L1-TVMV-His. From the text: The ability of the macrocyclic peptides of the present disclosure to bind to PD-L1 was investigated using a PD-1/PD-L1 Homogenous Time-Resolved Fluorescence (HTRF) binding assay.
Homogenous Time-Resolved Fluorescence (HTRF) Assays of Binding of Soluble PD-1 to Soluble PD-L1. Soluble PD-1 and soluble PD-L1 refers to proteins with carboxyl-end truncations that remove the transmembrane-spanning regions and are fused to heterologous sequences, specifically the Fc portion of the human immunoglobuling G sequence (Ig) or the hexahistidine epitope tag (SEQ ID NO: 3) (His). All binding studies were performed in an HTRF assay buffer consisting of dPBS supplemented with 0.1% (w/v) bovine serum albumin and 0.05% (v/v) Tween-20. For the PD-1-Ig/PD-L1-His binding assay, inhibitors were pre-incubated with PD-L1-His (10 nM final) for 15 m in 4 μl of assay buffer, followed by addition of PD-1-Ig (20 nM final) in 1 μl of assay buffer and further incubation for 15 m. PD-L1 fusion proteins from either human, cynomologous macaques, mouse, or other species were used. HTRF detection was achieved using europium crypate-labeled anti-Ig monoclonal antibody (1 nM final) and allophycocyanin (APC) labeled anti-His monoclonal antibody (20 nM final). Antibodies were diluted in HTRF detection buffer and 5 μl was dispensed on top of binding reaction. The reaction was allowed to equilibrate for 30 minutes and signal (665 nm/620 nm ratio) was obtained using an EnVision fluorometer. Additional binding assays were established between PD-1-Ig/PD-L2-His (20 and 5 nM, respectively), CD80-His/PD-L1-Ig (100 and 10 nM, respectively) and CD80-His/CTLA4-Ig (10 and 5 nM, respectively). Binding/competition studies between biotinylated Compound No. 71 and human PD-L1-His were performed as follows. Macrocyclic peptide inhibitors were pre-incubated with PD-L1-His (10 nM final) for 60 minutes in 4 μl of assay buffer followed by addition of biotinylated Compound No. 71 (0.5 nM final) in 1 μl of assay buffer. Binding was allowed to equilibrate for 30 minutes followed by addition of europium crypated labeled Streptavidin (2.5 pM final) and APC-labeled anti-His (20 nM final) in 5 μl of HTRF buffer. The reaction was allowed to equilibrate for 30 m and signal (665 nm/620 nm ratio) was obtained using an EnVision fluorometer.
Recombinant Proteins. Carboxyl-truncated human PD-1 (amino acids 25-167) with a C-terminal human Ig epitope tag [hPD-1 (25-167)-3S-IG] and human PD-L1 (amino acids 18-239) with a C-terminal His epitope tag [hPD-L1(19-239)-tobacco vein mottling virus protease cleavage site (TVMV)-His] were expressed in HEK293T cells and purified sequentially by recombinant Protein A affinity chromatography and size exclusion chromatography. Human PD-L2-His (Sino Biologicals), CD80-His (Sino Biologicals), CTLA4-Ig (RnD Systems) were all obtained through commercial sources.

Structures are written as SMILES. Starred links: 1 amine or outer side, 2 acyl side, 3 side chain; linkers in the order of their positions; H or OH if unused. Positions of bridges follow the written chain, without caps; N, C: chain ends. Non-standard residues stand in square brackets, D forms with d. Residues, ends and D or L forms follow the SMILES beside them. Tyrψ(CN4)Ala = C[C@@H](C(=O)[*:2])n1nnnc1[C@H](Cc1ccc(O)cc1)N[*:1]; X3 = O=C(C[C@@H](CO)C(=O)[*:2])[C@H](Cc1c[nH]c2ccccc12)N[*:1]; X4 = CCCC[C@@H](C(=O)[*:2])n1nnnc1[C@H](Cc1csc2ccccc12)N[*:1]; X5 = C[C@@H](C(=O)[*:2])n1nnnc1[C@H](Cc1ccccc1)N[*:1]; Bta = N[C@@H](Cc1csc2ccccc12)C(=O)O; Hyp = O=C(O)[C@@H]1C[C@@H](O)CN1; NMeNle = CCCC[C@H](NC)C(=O)O; NMeA = CN[C@@H](C)C(=O)O; Orn = NCCC[C@H](N)C(=O)O; Dap = NC[C@H](N)C(=O)O; Sar = CNCC(=O)O

T1 sequence (Q9NZQ7 with tags, fused parts or gaps): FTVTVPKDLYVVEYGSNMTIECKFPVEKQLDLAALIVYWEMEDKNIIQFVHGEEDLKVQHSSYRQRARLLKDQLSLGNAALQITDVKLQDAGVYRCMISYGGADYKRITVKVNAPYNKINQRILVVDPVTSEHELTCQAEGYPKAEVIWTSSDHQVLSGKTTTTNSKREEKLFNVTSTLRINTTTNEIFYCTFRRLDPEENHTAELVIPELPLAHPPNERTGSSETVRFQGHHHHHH

Compound `CCCC[C@H]1C(=O)N(C)[C@@H](CCCC)C(=O)N[C@@H](CCCNC(=N)N)C(=O)N[C@H](C(=O)NCC(N)=O)CSCC(=O)N[C@@H](Cc2ccccc2)c2nnnn2[C@@H](C)C(=O)N[C@@H](CC(N)=O)C(=O)N2CCC[C@H]2C(=O)N[C@@H](Cc2cnc[nH]2)C(=O)N[C@@H](CC(C)C)C(=O)N(C)CC(=O)N[C@@H](Cc2c[nH]c3ccccc23)C(=O)N[C@@H](CO)C(=O)N[C@@H](Cc2c[nH]c3ccccc23)C(=O)N1C` (single isomer, unassigned) [Example 1001] yielded a concentration for half-maximal inhibition (IC50) (range classes) of 100 to 10000 nM.

In turn, `CCCC[C@H]1C(=O)N(C)[C@@H](CCCC)C(=O)N[C@@H](CCCNC(=N)N)C(=O)N[C@H](C(=O)NCC(N)=O)CSCC(=O)N[C@@H](Cc2ccccc2)c2nnnn2[C@@H](C)C(=O)N[C@@H](CC(N)=O)C(=O)N2CCC[C@H]2C(=O)N[C@@H](Cc2cnc[nH]2)C(=O)N[C@@H](CC(C)C)C(=O)N(C)CC(=O)N[C@@H](Cc2c[nH]c3ccccc23)C(=O)N[C@@H](CO)C(=O)N[C@@H](Cc2c[nH]c3ccccc23)C(=O)N1C` (single isomer, unassigned) [Example 1002] showed an IC50 (numeric values) of 200 nM. In other words, the sub-micromolar range.

As for `CCCC[C@@H]1C(=O)N[C@@H](CCCNC(=N)N)C(=O)N[C@H](C(=O)NCC(N)=O)CSCC(=O)N[C@@H](Cc2ccccc2)c2cnnn2[C@@H](C)C(=O)N[C@H](CC(N)=O)C(=O)N2CCC[C@H]2C(=O)N[C@@H](Cc2cnc[nH]2)C(=O)N[C@@H](CC(C)C)C(=O)N(C)CC(=O)N[C@@H](Cc2c[nH]c3ccccc23)C(=O)N[C@@H](CO)C(=O)N[C@@H](Cc2c[nH]c3ccccc23)C(=O)N(C)[C@@H](CCCC)C(=O)N1C` (single isomer, unassigned) [Example 1003], under “range classes”, the 50% inhibitory concentration (IC50) lay in the range of 100 to 10000 nM.

As for `CCCC[C@@H]1C(=O)N[C@@H](CCCNC(=N)N)C(=O)N[C@H](C(=O)NCC(N)=O)CSCC(=O)N[C@@H](Cc2ccccc2)c2cnnn2[C@@H](C)C(=O)N[C@H](CC(N)=O)C(=O)N2CCC[C@H]2C(=O)N[C@@H](Cc2cnc[nH]2)C(=O)N[C@@H](CC(C)C)C(=O)N(C)CC(=O)N[C@@H](Cc2c[nH]c3ccccc23)C(=O)N[C@@H](CO)C(=O)N[C@@H](Cc2c[nH]c3ccccc23)C(=O)N(C)[C@@H](CCCC)C(=O)N1C` (single isomer, unassigned) [Example 1004], the IC50 (range classes) is 100 to 10000 nM.

For the setting “range classes”, `CCCC[C@H]1C(=O)N(C)CC(=O)N[C@@H](CC(=O)O)C(=O)N[C@@H](C(C)C)C(=O)N(C)[C@@H](Cc2ccccc2)C(=O)N[C@@H](Cc2ccc(O)cc2)C(=O)N(C)CC(=O)N[C@@H](Cc2c[nH]c3ccccc23)C(=O)N[C@@H](Cc2ccc(O)cc2)C(=O)N[C@@H](CC(C)C)C(=O)N[C@H](C(=O)NCC(N)=O)CSCC(=O)NC(Cc2ccccc2)c2nnnn2[C@@H](Cc2ccccc2)C(=O)N1C` (single isomer, unassigned) [Example 3001] yielded a concentration for half-maximal inhibition (IC50) of 100 to 10000 nM.

`CCCC[C@H]1C(=O)N(C)CC(=O)N[C@@H](CC(=O)O)C(=O)N[C@@H](C(C)C)C(=O)N(C)[C@@H](Cc2ccccc2)C(=O)N[C@@H](Cc2ccc(O)cc2)C(=O)N(C)CC(=O)N[C@@H](Cc2c[nH]c3ccccc23)C(=O)N[C@@H](Cc2ccc(O)cc2)C(=O)N[C@@H](CC(C)C)C(=O)N[C@H](C(=O)NCC(N)=O)CSCC(=O)NC(Cc2ccccc2)c2nnnn2[C@@H](Cc2ccccc2)C(=O)N1C` (single isomer, unassigned) [Example 3002] displayed an IC50 (range classes) of 100 to 10000 nM.

For `CCCC[C@H]1C(=O)N[C@H](CCCNC(=N)N)C(=O)N[C@@H](C(=O)NCC(N)=O)CSCC(=O)N[C@@H](Cc2ccccc2)C(=O)N(C)[C@@H](C)C(=O)N[C@@H](CC(N)=O)C(=O)N2CCC[C@H]2C(=O)N[C@@H](Cc2cnc[nH]2)C(=O)N[C@@H](CC(C)C)C(=O)N(C)CC(=O)N[C@@H](Cc2c[nH]c3ccccc23)C(=O)N[C@@H](CO)C(=O)N[C@@H](Cc2cccc3ccccc23)c2nnnn2[C@@H](CCCC)C(=O)N1C` [Example 1005], the IC50 (range classes) was 100 to 10000 nM.

`CCCC[C@H]1C(=O)NC(CCCNC(=N)N)C(=O)N[C@H](C(=O)NCC(N)=O)CSCC(=O)N[C@@H](Cc2ccc(O)cc2)C(=O)N(C)[C@@H](C)C(=O)N[C@@H](CC(N)=O)C(=O)N2CCC[C@H]2C(=O)N[C@@H](Cc2cnc[nH]2)C(=O)N[C@@H](CC(C)C)C(=O)N2CCC[C@H]2C(=O)N[C@@H](Cc2c[nH]c3ccccc23)C(=O)N[C@@H](CO)C(=O)N[C@@H](Cc2cccc3ccccc23)c2nnnn2[C@@H](CCCC)C(=O)N1C` (stereo partly shown) [Example 1006] yielded a half-inhibitory concentration (IC50) (range classes) of 100 to 10000 nM.

For the compound `CCCCC1C(=O)N(C)[C@@H](CCCC)C(=O)N[C@@H](CCCNC(=N)N)C(=O)N[C@H](C(=O)NCC(N)=O)CSCC(=O)N[C@@H](Cc2ccccc2)c2nnnn2[C@@H](C)C(=O)N[C@@H](CC(N)=O)C(=O)N2CCC[C@H]2C(=O)N[C@@H](Cc2cnc[nH]2)C(=O)N[C@@H](CC(C)C)C(=O)N(C)CC(=O)N[C@@H](Cc2c[nH]c3ccccc23)C(=O)N[C@@H](CO)C(=O)N[C@@H](Cc2cccc3ccccc23)c2nnnn21` (stereo partly shown) [Example 1007], the IC50 (range classes) fell in the range of 100 to 10000 nM.

Regarding `CCCC[C@H]1C(=O)N(C)[C@@H](CCCC)C(=O)N[C@@H](CCCNC(=N)N)C(=O)N[C@H](C(=O)NCC(N)=O)CSCC(=O)N[C@@H](Cc2ccccc2)c2nnnn2[C@@H](C)C(=O)N[C@@H](CC(N)=O)C(=O)N2CCC[C@H]2C(=O)N[C@@H](Cc2cnc[nH]2)C(=O)N[C@@H](CC(C)C)C(=O)N2CCC[C@H]2C(=O)N[C@@H](Cc2c[nH]c3ccccc23)C(=O)N[C@@H](CO)C(=O)N[C@@H](Cc2csc3ccccc23)C(=O)N1C` [Example 1010] ({CH2CO}-[X5]NPHLPWS[Bta][NMeNle][NMeNle]RCG-NH2; thioether N-13), the concentration for half-maximal inhibition (IC50) (range classes) lay in the range of 100 to 10000 nM.

Consider `CCCC[C@H]1C(=O)N(C)[C@@H](CCCC)C(=O)N[C@@H](CCCNC(=N)N)C(=O)N[C@H](C(=O)NCC(N)=O)CSCC(=O)N[C@@H](Cc2ccc(O)cc2)c2nnnn2[C@@H](C)C(=O)N[C@@H](CC(N)=O)C(=O)N2CCC[C@H]2C(=O)N[C@@H](Cc2cnc[nH]2)C(=O)N[C@@H](CC(C)C)C(=O)N(C)CC(=O)N[C@@H](Cc2c[nH]c3ccccc23)C(=O)N[C@@H](CO)C(=O)N[C@@H](Cc2c[nH]c3ccccc23)C(=O)N1C` [Example 1012] ({CH2CO}-[Tyrψ(CN4)Ala]NPHL[Sar]WSW[NMeNle][NMeNle]RCG-NH2; thioether N-13), for which the half-maximal inhibitory concentration (IC50) (numeric values) was found to be 30 nM. In other words, the double-digit nanomolar range.

The compound `CCCC[C@H]1C(=O)N[C@@H](CCCN)C(=O)N[C@H](C(=O)NCC(N)=O)CSCC(=O)N[C@@H](Cc2ccc(O)cc2)C(=O)N(C)[C@@H](C)C(=O)N[C@@H](CC(N)=O)C(=O)N2CCC[C@H]2C(=O)N[C@@H](Cc2cnc[nH]2)C(=O)N[C@@H](CC(C)C)C(=O)N2C[C@H](O)C[C@H]2C(=O)N[C@@H](Cc2c[nH]c3ccccc23)C(=O)C[C@@H](CO)C(=O)N[C@@H](Cc2csc3ccccc23)c2nnnn2[C@@H](CCCC)C(=O)N1C` [Example 1013] ({CH2CO}-Y[NMeA]NPHL[Hyp][X3][X4][NMeNle][Orn]CG-NH2; thioether N-12) gave a 50% inhibitory concentration (IC50) (range classes) of 10 to 99 nM.

`CCCC[C@H]1C(=O)N(C)[C@@H](CCCC)C(=O)N[C@@H](CCCN)C(=O)N[C@H](C(=O)NCC(N)=O)CSCC(=O)N[C@@H](Cc2ccc(O)cc2)c2nnnn2[C@@H](C)C(=O)N[C@@H](CC(N)=O)C(=O)N2CCC[C@H]2C(=O)N[C@@H](CN)C(=O)N[C@@H](CC(C)C)C(=O)N2C[C@H](O)C[C@H]2C(=O)N[C@@H](Cc2c[nH]c3ccccc23)C(=O)N[C@@H](CO)C(=O)N[C@@H](Cc2c[nH]c3ccccc23)C(=O)N1C` [Example 1014] ({CH2CO}-[Tyrψ(CN4)Ala]NP[Dap]L[Hyp]WSW[NMeNle][NMeNle][Orn]CG-NH2; thioether N-13) came in with an IC50 (range classes) of 5 to 9.9 nM.

The IC50 is the midpoint of a concentration-inhibition curve. The low end stands for greater potency, the high end for weaker potency.
